Experimental data published in the NIST ThermoML archive (doi:10.1007/s10765-005-8101-x).
± gives the expanded uncertainty stated by the source. Each block holds one compound with its values, some of them ahead of it.

Assays:
[1] = 298.15 K; 101.33 kPa; Liquid
[2] = xn = mol fraction of the nth substance listed; conditions: 298.15 K, 101 kPa, Liquid

mass density [1]: 821.72 ± 2.1 kg/m3
speed of sound [1]: 1347.9 ± 6.5 m/s
Compound: CCCCCCCCO [octan-1-ol]

mass density [1]: 781.91 ± 0.62 kg/m3
speed of sound [1]: 1141.3 ± 2.7 m/s
Compound: CC(C)O [propan-2-ol]

mass density [1]: 800.62 ± 0.6 kg/m3
speed of sound [1]: 1208.1 ± 2.8 m/s
Compound: CCCO [propan-1-ol]

mass density ([2]; x2 = 0.0862): 819.96 ± 1.4 kg/m3
speed of sound ([2]; x2 = 0.0862): 1338.7 ± 6.4 m/s
mass density ([2]; x2 = 0.2078): 817.18 ± 1.4 kg/m3
speed of sound ([2]; x2 = 0.2078): 1324.2 ± 6.2 m/s
mass density ([2]; x2 = 0.2977): 814.58 ± 1.3 kg/m3
speed of sound ([2]; x2 = 0.2977): 1311.6 ± 6.1 m/s
mass density ([2]; x2 = 0.4059): 811.74 ± 1.2 kg/m3
speed of sound ([2]; x2 = 0.4059): 1296 ± 6 m/s
mass density ([2]; x2 = 0.5012): 808.6 ± 1.2 kg/m3
speed of sound ([2]; x2 = 0.5012): 1279.4 ± 5.9 m/s
mass density ([2]; x2 = 0.5991): 804.77 ± 1.1 kg/m3
speed of sound ([2]; x2 = 0.5991): 1259.8 ± 5.7 m/s
mass density ([2]; x2 = 0.6994): 800.52 ± 1.1 kg/m3
speed of sound ([2]; x2 = 0.6994): 1237.7 ± 5.6 m/s
mass density ([2]; x2 = 0.7985): 795.28 ± 1.1 kg/m3
speed of sound ([2]; x2 = 0.7985): 1211.1 ± 5.5 m/s
mass density ([2]; x2 = 0.8993): 789.09 ± 1 kg/m3
speed of sound ([2]; x2 = 0.8993): 1179.3 ± 5.3 m/s
mass density ([2]; x2 = 0.9453): 785.8 ± 1 kg/m3
speed of sound ([2]; x2 = 0.9453): 1162.8 ± 5.3 m/s
Compound: CCCCCCCCO [octan-1-ol] + CC(C)O

mass density [1]: 806.14 ± 0.59 kg/m3
speed of sound [1]: 1240.8 ± 2.9 m/s
Compound: CCCCO [butan-1-ol]

mass density [1]: 815.15 ± 1.2 kg/m3
speed of sound [1]: 1303.6 ± 5.9 m/s
Compound: CCCCCCO [hexan-1-ol]

mass density ([2]; x1 = 0.1051): 798.37 ± 0.97 kg/m3
speed of sound ([2]; x1 = 0.1051): 1201 ± 5.4 m/s
mass density ([2]; x1 = 0.195): 796.76 ± 0.97 kg/m3
speed of sound ([2]; x1 = 0.195): 1195.4 ± 5.3 m/s
mass density ([2]; x1 = 0.3049): 794.67 ± 0.98 kg/m3
speed of sound ([2]; x1 = 0.3049): 1187.9 ± 5.3 m/s
mass density ([2]; x1 = 0.4062): 792.8 ± 0.98 kg/m3
speed of sound ([2]; x1 = 0.4062): 1181.3 ± 5.3 m/s
mass density ([2]; x1 = 0.4941): 791.17 ± 0.99 kg/m3
speed of sound ([2]; x1 = 0.4941): 1175.4 ± 5.3 m/s
mass density ([2]; x1 = 0.6029): 789.12 ± 0.99 kg/m3
speed of sound ([2]; x1 = 0.6029): 1168 ± 5.3 m/s
mass density ([2]; x1 = 0.7067): 787.16 ± 1 kg/m3
speed of sound ([2]; x1 = 0.7067): 1161 ± 5.2 m/s
mass density ([2]; x1 = 0.8063): 785.31 ± 1 kg/m3
speed of sound ([2]; x1 = 0.8063): 1154.2 ± 5.2 m/s
mass density ([2]; x1 = 0.91): 783.37 ± 1 kg/m3
speed of sound ([2]; x1 = 0.91): 1147.5 ± 5.2 m/s
mass density ([2]; x1 = 0.9515): 782.54 ± 1 kg/m3
speed of sound ([2]; x1 = 0.9515): 1144.5 ± 5.2 m/s
Compound: CC(C)O [propan-2-ol] + CCCO

mass density ([2]; x2 = 0.0596): 804.62 ± 0.95 kg/m3
speed of sound ([2]; x2 = 0.0596): 1235.6 ± 5.5 m/s
mass density ([2]; x2 = 0.1039): 803.68 ± 0.95 kg/m3
speed of sound ([2]; x2 = 0.1039): 1231.8 ± 5.5 m/s
mass density ([2]; x2 = 0.2093): 801.62 ± 0.96 kg/m3
speed of sound ([2]; x2 = 0.2093): 1223.2 ± 5.4 m/s
mass density ([2]; x2 = 0.3024): 799.57 ± 0.96 kg/m3
speed of sound ([2]; x2 = 0.3024): 1214.8 ± 5.4 m/s
mass density ([2]; x2 = 0.3977): 797.49 ± 0.97 kg/m3
speed of sound ([2]; x2 = 0.3977): 1206.1 ± 5.4 m/s
mass density ([2]; x2 = 0.5033): 794.92 ± 0.98 kg/m3
speed of sound ([2]; x2 = 0.5033): 1195.9 ± 5.4 m/s
mass density ([2]; x2 = 0.599): 792.68 ± 0.98 kg/m3
speed of sound ([2]; x2 = 0.599): 1186.5 ± 5.3 m/s
mass density ([2]; x2 = 0.6946): 790.21 ± 0.99 kg/m3
speed of sound ([2]; x2 = 0.6946): 1176.4 ± 5.3 m/s
mass density ([2]; x2 = 0.8062): 787.19 ± 1 kg/m3
speed of sound ([2]; x2 = 0.8062): 1164.1 ± 5.3 m/s
mass density ([2]; x2 = 0.8938): 784.58 ± 1 kg/m3
speed of sound ([2]; x2 = 0.8938): 1153.6 ± 5.2 m/s
Compound: CCCCO [butan-1-ol] + CC(C)O

mass density ([2]; x2 = 0.039): 814.4 ± 1.2 kg/m3
speed of sound ([2]; x2 = 0.039): 1299.6 ± 5.9 m/s
mass density ([2]; x2 = 0.1037): 813 ± 1.1 kg/m3
speed of sound ([2]; x2 = 0.1037): 1292.9 ± 5.9 m/s
mass density ([2]; x2 = 0.2075): 810.57 ± 1.1 kg/m3
speed of sound ([2]; x2 = 0.2075): 1281.1 ± 5.8 m/s
mass density ([2]; x2 = 0.3051): 808.2 ± 1.1 kg/m3
speed of sound ([2]; x2 = 0.3051): 1269.2 ± 5.7 m/s
mass density ([2]; x2 = 0.4032): 805.42 ± 1.1 kg/m3
speed of sound ([2]; x2 = 0.4032): 1255.9 ± 5.7 m/s
mass density ([2]; x2 = 0.5067): 802.47 ± 1.1 kg/m3
speed of sound ([2]; x2 = 0.5067): 1241.4 ± 5.6 m/s
mass density ([2]; x2 = 0.6044): 799.08 ± 1 kg/m3
speed of sound ([2]; x2 = 0.6044): 1225 ± 5.5 m/s
mass density ([2]; x2 = 0.7047): 795.43 ± 1 kg/m3
speed of sound ([2]; x2 = 0.7047): 1207.3 ± 5.4 m/s
mass density ([2]; x2 = 0.8059): 791.12 ± 1 kg/m3
speed of sound ([2]; x2 = 0.8059): 1186.8 ± 5.4 m/s
mass density ([2]; x2 = 0.9081): 786.44 ± 1 kg/m3
speed of sound ([2]; x2 = 0.9081): 1164.3 ± 5.3 m/s
Compound: CCCCCCO [hexan-1-ol] + CC(C)O
